Reference: patent publication US20100267561A1, “HERBICIDAL PYRIDAZINONE DERIVATIVES” (priority 2007, published 2010)

What was measured:
Type in all cases: in vivo
[1] = tested on: winter barley (HORVX, Hordeum vulgare); experiment: Test F mixtures with safener cloquintocet-mexyl, pre-/postemergence plant response; conditions: applied alone
[2] = tested on: spanishneedles (Bidens bipinnata); experiment: Test E pre-/postemergence plant response; conditions: scale 0 to 100
Summary of the method: (§1)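 Visual rating 0–100 vs untreated controls (0 = no effect, 100 = complete control) after 14–21 d greenhouse. Pre- and postemergence treatments; compound in non-phytotoxic solvent mix + surfactant. Post plants 2–18 cm, 1- to 4-leaf stage.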

[3] = tested on: common ragweed (Ambrosia elation); experiment: Test E pre-/postemergence plant response; conditions: scale 0 to 100
Summary of the method: as §1

[4] = tested on: field bindweed (Convolvulus arvensis); experiment: Test E pre-/postemergence plant response; conditions: scale 0 to 100
Summary of the method: as §1

[5] = tested on: Canada horseweed (Conyza canadensis); experiment: Test E pre-/postemergence plant response; conditions: Postemergence, scale 0 to 100
Summary of the method: as §1

CCc1cc(-c2ccc(C(F)(F)F)cc2)nn1-c1c(OC(=O)OC(C)C)cnn(C)c1=O [Compound 12]
0: HORVX Obsd. (observed effect) plant response rating, scale 0 to 100 ([1]; postemergence, 4 g a.i./ha) | Plant response rating, Spanishneedles ([2]; 4 g ai/ha, Postemergence) | Plant response rating, Spanishneedles ([2]; 31 g ai/ha, Preemergence) | Plant response rating, Spanishneedles ([2]; Postemergence, 8 g ai/ha) | Plant response rating, Spanishneedles ([2]; Postemergence, 31 g ai/ha) | Plant response rating, Ragweed ([3]; 4 g ai/ha, Postemergence) | Plant response rating, Ragweed ([3]; 31 g ai/ha, Preemergence) | Plant response rating, Ragweed ([3]; Postemergence, 8 g ai/ha) | Plant response rating, Ragweed ([3]; Postemergence, 31 g ai/ha) | Plant response rating, Ragweed ([3]; Preemergence, 4 g ai/ha) | Plant response rating, Field Bindweed ([4]; 4 g ai/ha, Postemergence) | Plant response rating, Field Bindweed ([4]; 8 g ai/ha, Preemergence) | Plant response rating, Field Bindweed ([4]; 31 g ai/ha, Preemergence) | Plant response rating, Field Bindweed ([4]; Postemergence, 8 g ai/ha) | Plant response rating, Field Bindweed ([4]; Postemergence, 31 g ai/ha) | Plant response rating, Field Bindweed ([4]; Preemergence, 4 g ai/ha) | Plant response rating, Horseweed ([5]; 4 g ai/ha) | Plant response rating, Horseweed ([5]; 8 g ai/ha) | Plant response rating, Horseweed ([5]; 31 g ai/ha)
32: HORVX Obsd. (observed effect) plant response rating, scale 0 to 100 ([1]; postemergence, 8 g a.i./ha)
65: HORVX Obsd. (observed effect) plant response rating, scale 0 to 100 ([1]; postemergence, 16 g a.i./ha)
73: HORVX Obsd. (observed effect) plant response rating, scale 0 to 100 ([1]; preemergence, 8 g a.i./ha)
80: HORVX Obsd. (observed effect) plant response rating, scale 0 to 100 ([1]; preemergence, 16 g a.i./ha)
10: HORVX Obsd. (observed effect) plant response rating, scale 0 to 100 ([1]; preemergence, 4 g a.i./ha)
